{"source": "paper PMC7539972", "about": "“Role of Two Exceptional trans Adenylation Domains and MbtH‐like Proteins in the Biosynthesis of the Nonribosomal Peptide WS9324A from Streptomyces calvus ATCC 13382” (Chembiochem, 2020)", "test_in_all_cases": "[…]PPi release adenylation assay", "type_in_all_cases": "biochemical", "key": {"Cal23Asn/Cal4 complex [1]": {"molecular_target": "T1, Cal23Asn/Cal4 complex (Streptomyces calvus, UniProt A0A0N9M336)", "T1 construct": "gene cal23; complete ORF, A-PCP didomain, N-terminal His6 tag; copurified with untagged MbtH-like protein Cal4; E. coli BL21(DE3) ΔybdZ; with MbtH-like protein", "T1 sequence (A0A0N9M336 entry or part of it)": "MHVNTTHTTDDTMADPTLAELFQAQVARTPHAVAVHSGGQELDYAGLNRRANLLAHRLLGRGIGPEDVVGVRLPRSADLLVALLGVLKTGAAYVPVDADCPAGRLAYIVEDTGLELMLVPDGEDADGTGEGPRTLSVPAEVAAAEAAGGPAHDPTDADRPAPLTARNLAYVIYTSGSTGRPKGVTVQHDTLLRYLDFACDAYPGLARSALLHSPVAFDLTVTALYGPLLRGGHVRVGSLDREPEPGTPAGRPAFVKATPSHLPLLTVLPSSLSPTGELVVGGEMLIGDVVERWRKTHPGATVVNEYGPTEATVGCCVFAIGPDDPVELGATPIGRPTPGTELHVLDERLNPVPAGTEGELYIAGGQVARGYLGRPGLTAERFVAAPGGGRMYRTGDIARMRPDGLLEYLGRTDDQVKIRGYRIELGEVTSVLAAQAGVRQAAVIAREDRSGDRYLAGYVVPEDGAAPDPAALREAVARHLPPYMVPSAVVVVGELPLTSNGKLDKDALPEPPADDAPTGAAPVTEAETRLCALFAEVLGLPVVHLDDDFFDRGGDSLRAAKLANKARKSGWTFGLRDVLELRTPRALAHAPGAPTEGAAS", "T1 sequence (A0A0N9M601 entry or part of it, further chain)": "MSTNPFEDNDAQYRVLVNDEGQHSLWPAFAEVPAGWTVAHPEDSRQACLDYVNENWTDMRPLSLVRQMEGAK", "conditions": "co-substrate asparagine 0.2 mM; 0.15 mM ATP, 1 mM MgCl2, 25 °C, 3 h; labelled compound"}, "Cal22Thr [2]": {"molecular_target": "T2, Cal22Thr (Streptomyces calvus, UniProt A0A0N9LS39)", "T2 construct": "gene cal22; complete ORF, A-PCP didomain, N-terminal His6 tag; E. coli BL21(DE3) ΔybdZ, coexpressed with untagged Cal4 (Cal4 not copurified)", "T2 sequence (A0A0N9LS39 entry or part of it)": "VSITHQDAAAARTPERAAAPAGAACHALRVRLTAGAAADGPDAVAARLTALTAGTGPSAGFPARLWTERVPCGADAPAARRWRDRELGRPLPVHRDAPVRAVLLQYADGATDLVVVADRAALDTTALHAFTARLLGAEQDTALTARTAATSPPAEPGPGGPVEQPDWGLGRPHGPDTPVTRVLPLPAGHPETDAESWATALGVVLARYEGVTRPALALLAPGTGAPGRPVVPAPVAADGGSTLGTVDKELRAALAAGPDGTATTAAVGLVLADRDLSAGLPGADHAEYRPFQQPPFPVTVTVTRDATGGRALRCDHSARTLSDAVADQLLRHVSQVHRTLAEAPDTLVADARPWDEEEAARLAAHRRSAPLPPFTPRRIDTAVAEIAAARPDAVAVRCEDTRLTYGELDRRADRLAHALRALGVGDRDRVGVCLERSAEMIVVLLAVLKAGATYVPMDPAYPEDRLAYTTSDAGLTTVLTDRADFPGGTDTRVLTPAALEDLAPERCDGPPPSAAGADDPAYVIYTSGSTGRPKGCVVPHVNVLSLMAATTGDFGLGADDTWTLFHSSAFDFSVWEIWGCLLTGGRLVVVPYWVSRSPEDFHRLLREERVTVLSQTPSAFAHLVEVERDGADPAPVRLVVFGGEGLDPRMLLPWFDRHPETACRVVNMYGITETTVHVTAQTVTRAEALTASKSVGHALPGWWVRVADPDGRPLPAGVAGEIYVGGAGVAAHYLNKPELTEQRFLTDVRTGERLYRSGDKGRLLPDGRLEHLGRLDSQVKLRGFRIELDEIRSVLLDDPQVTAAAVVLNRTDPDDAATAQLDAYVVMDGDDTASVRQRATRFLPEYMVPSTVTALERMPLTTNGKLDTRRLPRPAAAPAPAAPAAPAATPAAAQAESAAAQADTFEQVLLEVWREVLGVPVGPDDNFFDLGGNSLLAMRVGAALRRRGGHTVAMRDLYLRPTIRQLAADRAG", "conditions": "co-substrate threonine 0.2 mM; 0.15 mM ATP, 1 mM MgCl2, 25 °C, 3 h; labelled compound"}, "Cal23Asn/Cal4 complex [3]": {"molecular_target": "T1, Cal23Asn/Cal4 complex", "conditions": "0.2 mM amino acid, 0.15 mM ATP, 1 mM MgCl2, 25 °C, 3 h, 30 μM enzyme; most active of 20 proteinogenic amino acids"}, "Cal22Thr [4]": {"molecular_target": "T2, Cal22Thr", "conditions": "0.2 mM amino acid, 0.15 mM ATP, 1 mM MgCl2, 25 °C, 3 h, 30 μM enzyme; most active of 20 proteinogenic amino acids"}}, "data": [{"compound": "Nc1ncnc2c1ncn2[C@@H]1O[C@H](COP(=O)(O)OP(=O)(O)OP(=O)(O)O)[C@@H](O)[C@H]1O", "note": "[ATP]", "values": [{"measurement": "[33P]PPi release adenylation assay", "setting": "Cal23Asn/Cal4 complex [1]", "value": "the reaction of ATP with an amino acid to form an amino acyl adenylate was measured"}, {"measurement": "[33P]PPi release adenylation assay", "setting": "Cal22Thr [2]", "value": "the reaction of ATP with an amino acid to form an amino acyl adenylate was measured"}]}, {"compound": "NC(=O)C[C@H](N)C(=O)O", "note": "[asparagine]", "values": [{"measurement": "relative adenylation activity", "setting": "Cal23Asn/Cal4 complex [3]", "value": "Cal23Asn/Cal4 complex was most active towards asparagine, the predicted substrate of the A‐domain"}]}, {"compound": "C[C@@H](O)[C@H](N)C(=O)O", "note": "[threonine]", "values": [{"measurement": "relative adenylation activity", "setting": "Cal22Thr [4]", "value": "Cal22Thr was observed to be most specific towards its predicted substrate threonine"}]}]}
